Measurements reported in US4560687A, “Substituted aromatic compounds” (priority 1979, dated 1985).
Where two headings read alike, the source gives them in different places.

Assays:
[1] = standard maximal electroshock test (anticonvulsant activity); type: in vivo; conditions: Mus musculus, po, mice
Method: The anticonvulsant activity of the compounds of the present invention was determined by a standard maximal electroshock test, that described by L. A. Woodbury and V. D. Davenport, Arch. Int. Pharmacodyn., 1952, 92, 97.

Plasmadium berghei = Plasmadium berghei in mice; Rees et al, 1972; cited from earlier work
[2] = cited from earlier work; for toxicity: at curative doses
[3] = anti-malarial agents tested as anticonvulsants; Rosenburg and Bottiroli, 1964; cited from earlier work

Row | SMILES | ED50 [1] [mg/kg] | activity against malaria (Plasmadium berghei) | toxicity ([2]; Rees et al, 1972) | also measured
1 | Cc1cc(Cl)ccc1-c1nnc(N)nc1N [3,5-diamino-6-(4-chloro-2-methylphenyl)-1,2,4-triazine] | 14.8 | – | – | –
2 | Nc1nnc(-c2ccc(Cl)c(Cl)c2)c(N)n1 [3,4-dichlorophenyl] | – | active against the malaria organism | toxic at curative doses | therapeutic ratio ([2]; mouse, in vivo): low therapeutic ratio
3 | Nc1nnc(-c2ccc(Cl)c(C(F)(F)F)c2)c(N)n1 [3,5-diamino-6-(4-chloro-3-trifluoromethylphenyl)-1,2,4-triazine] | 18.5 | – | – | –
4 | Nc1nnc(-c2ccc(C(F)(F)F)cc2)c(N)n1 [4-trifluoromethylphenyl] | – | still being active against malaria | less toxic than the chlorophenyl compounds | –
5 | CCN(CCO)CCCC(C)Nc1ccnc2cc(Cl)ccc12 (stereo not shown) [hydroxychloroquine] | – | – | – | anticonvulsant activity profile [3]: favourable activity profile
6 | Nc1nnc(-c2ccc(Cl)cc2)c(N)n1 [4-chlorophenyl] | – | active against the malaria organism | toxic at curative doses | therapeutic ratio ([2]; malaria context, Rees et al, 1972): low therapeutic ratio
7 | Nc1nnc(-c2cc3ccccc3cc2Cl)c(N)n1 [3,5-diamino-6-(3-chloro-2-naphthyl)-1,2,4-triazine] | 12 | – | – | –
8 | Nc1nnc(-c2ccc(Cl)cc2Cl)c(N)n1 [2,4-dichlorophenyl] | – | only slight antimalarial activity | – | –
